Experiments:
[1] = cited from earlier work
[2] = kinetics of dihydrogen release on dissolution of a hydride composition in 30 mL PBS solution, according to pH; type: physicochemical; conditions: substantially 13 mg hydride in 30 mL PBS
[3] = pH of the PBS solution following dissolution of the hydride; type: physicochemical; conditions: after dissolution

Row | SMILES | saturation limit concentration in water [1] [ppm] | required time for reaching the release of about 1 ppm of dihydrogen after immersion ([2]; pH 5.8) | required time for reaching the release of about 1 ppm of dihydrogen after immersion ([2]; pH 7.4) [min] | required time for reaching the release of about 1 ppm of dihydrogen after immersion ([2]; pH 8.45) [min] | pH of the PBS solution following the dissolution of the hydride [3]
1 | [HH] [dihydrogen] | 1.57 |  |  |  | 
2 | [H-].[H-].[Mg+2] [magnesium hydride] |  | about 30 seconds | ~4 | ~5 | 10

— US20220175825A1, “COMPOSITION AND ASSOCIATED DELIVERY DEVICE FOR HYDROGEN THERAPY” (UNIVERSITE GRENOBLE ALPES, priority 2019, published 2022)
